Reference: US20240018472A1, “ENHANCEMENT OF EXTRACELLULAR VESICLE PRODUCTION BY LYSOSOME INHIBITOR” (ExoTop Theragnostics Inc., priority 2022, published 2024)
“Also recorded” adds a separate entry of the source.

Assays:
miR-222 = experiment: microRNA expression of miR-222 (miR-22 in the source), MSC with or without CQ; assay type: cell-based; conditions: CQ 50 μM, 48 hours
Protocol: (§1) Mesenchymal stem cells (MSC) were cultured in complete media until reaching 70% overall cell confluence, and then were further cultured in three different media with or without chloroquine (CQ) at 50 μM for 48 hours: complete media (normal culture media containing serum), αMEM (minimum essential media), and CDPF (chemically defined protein-free media). The cultured cells were analyzed for protein expression of TSG-6 (tumor necrosis factor-inducible gene 6 protein), Gal-3 (β-galactoside-binding lectin-3), and IDO and microRNA expression of miR-21 and miR-222. One-way ANOVA statistics were performed to analyze the data. P-value of greater than 0.05 was considered as not having a significant difference. *** indicates p≤0.001.

[1] = test system: FASN (fatty acid synthase); experiment: qPCR of FASN gene expression in MSCs with or without CQ; assay type: cell-based; conditions: both serum-free media and complete media, 48-hour culture
Protocol: (§2) Mesenchymal stem cells (MSCs) were subjected to 48-hour culture in either complete media or serum-free media, followed by treatment with or without CQ to investigate alterations in cellular morphology. In addition, the gene expression levels of FASN (fatty acid synthase, a pivotal lipogenic enzyme) and SREBF-1(sterol regulatory element-binding transcription factor-1), two key factors involved in lipid metabolism, were assessed by qPCR.

[2] = test system: Gal-3 (β-galactoside-binding lectin-3); experiment: Protein expression of Gal-3, MSC with or without CQ; assay type: cell-based; conditions: both αMEM media and CDPF media; CQ 50 μM, 48 hours
Protocol: as §1

CD09 = experiment: qPCR of CD09 gene expression in MSCs with or without CQ; assay type: cell-based; conditions: all media conditions; CQ 50 μM, 48 hours
Protocol: (§3) Mesenchymal stem cells (MSC) were cultured in complete media until reaching 70% overall cell confluence, and then were further cultured in three different media with or without chloroquine (CQ) at 50 μM for 48 hours: complete media (normal culture media containing serum), αMEM (minimum essential media), and CDPF (chemically defined protein-free media). The cell-cultured media were collected, filtered through a 0.2 μm filter, and assessed by CD63 ELISA to quantify the amount of CD63, a protein marker associated with small-sized EVs (FIG. 5A).
(§4) To further examine whether the upregulation of CD63 protein is a result of cytosolic secretion or heightened expression at the gene level, an analysis of alterations in the gene expression levels of extracellular vesicle-specific components in both complete and serum-free media was performed. The cultured cells were collected to perform qPCR analysis to detect three well-established EV markers: CD09, CD63, and CD81 (FIGS. 5B, 5C, and 5D).
(§5) One-way ANOVA statistics were performed to analyze the data. In some cases, CD63 is a marker associated with small-sized EVs. In some cases, CD81 is a marker associated with EVs generally. P-value of greater than 0.05 was considered as not having a significant difference. *** indicates p≤0.001.

[3] = test system: fatty acid synthase (FASN); experiment: qPCR RQ for fatty acid synthase (FASN) in MSCs in CCM or CDPF with or without lysosome inhibitor; assay type: cell-based
Protocol: (§6) Mesenchymal stem cells were seeded on the plate at a density of ˜5000 cells/cm^2 and the plate was placed in a 5% CO2 humidified incubator. One day after the incubation, the culture media was aspirated to remove non-adherent cells and switched to a fresh media. The plate was incubated again. After further culturing for around 3 to 5 days, the culture media was aspirated and replaced by CDPF and/or lysosome inhibitor medium. The cells were cultured in the CDPF and/or lysosome inhibitor medium for 12, 24, or 48 hours. After the designated period of culturing, the culture media was collected and cell lysis buffer was immediately added to the cells on the plate. The collected media and cell lysate were each independently subjected to detection of the level of CD63 by ELISA and by qPCR, respectively.
(§7) To quantitatively compare CD63+ expression in CM cultured in various media including CCM, CDPF, and CDPF with lysosome inhibitor, enzyme-linked immunosorbent (ELISA) assays were performed.

CD63 [4] = experiment: qPCR of CD63 gene expression in MSCs with or without CQ; assay type: cell-based; conditions: CQ 50 μM, 48 hours; for gene expression of CD63 (in words): listed as CQ
Protocol: as §3, §4, §5

CD63 [5] = experiment: CD63 ELISA of cell-cultured media, MSC with or without CQ in three media; assay type: cell-based; conditions: for CD63 levels (ELISA) vs corresponding medium without CQ: CQ 50 μM, 48 hours
Protocol: as §3, §5

CD81 = experiment: qPCR of CD81 gene expression in MSCs with or without CQ; assay type: cell-based; conditions: all media conditions (complete, αMEM, CDPF); CQ 50 μM, 48 hours; listed as CQ
Protocol: as §3, §4, §5

CD63 [6] = experiment: CD63 ELISA of culture media, secretion of EVs (CD63+ particles) from stem cells; assay type: cell-based, human
Protocol: as §6, §7

miR-21 = experiment: microRNA expression of miR-21, MSC with or without CQ; assay type: cell-based; conditions: CQ 50 μM, 48 hours
Protocol: as §1

[7] = test system: Mesenchymal stem cells (MSCs); experiment: Cellular morphology of MSCs after 48-hour culture with or without CQ; assay type: cell-based; conditions: CQ in serum-free media compared to complete media
Protocol: as §2

human MSCs = experiment: Intracellular acidification of MSCs, lysotracker red staining of acidic organelles; assay type: cell-based; conditions: MSCs cultured in CDPF with lysosome inhibitor vs CCM and CDPF
Protocol: The plate was incubated again.
Human MSCs were cultured in different media including complete culture medium (CCM), CDPF, and CDPF with lysosome inhibitor. The acidic organelles in live stem cells were stained by lysotracker red.

IDO = experiment: Protein expression of IDO, MSC with or without CQ; assay type: cell-based; conditions: both αMEM media and CDPF media; CQ 50 μM, 48 hours
Protocol: as §1

[8] = test system: SREBF-1 (sterol regulatory element-binding transcription factor-1); experiment: qPCR of SREBF-1 gene expression in MSCs with or without CQ; assay type: cell-based; conditions: both serum-free media and complete media, 48-hour culture
Protocol: as §2

[9] = test system: TSG-6 (tumor necrosis factor-inducible gene 6 protein); experiment: Protein expression of TSG-6, MSC with or without CQ; assay type: cell-based; conditions: regardless of the culture condition; CQ 50 μM, 48 hours
Protocol: as §1

[10] = complete media culture condition
[11] = CDPF with lysosome inhibitor vs CDPF, RT-qPCR

Protocol for human CD63 (hCD63) gene: Mesenchymal stem cells were seeded on the plate at a density of 5000 cells/cm^2 and the plate was placed in a 5% CO2 humidified incubator. One day after the incubation, the culture media was aspirated to remove non-adherent cells and switched to a fresh media. The plate was incubated again. After further culturing for around 3 to 5 days, the culture media was aspirated and replaced by CDPF and/or lysosome inhibitor medium. The cells were cultured in the CDPF and/or lysosome inhibitor medium for 12, 24, or 48 hours. After the designated period of culturing, the culture media was collected and cell lysis buffer was immediately added to the cells on the plate. The collected media and cell lysate were each independently subjected to detection of the level of CD63 by ELISA and by qPCR, respectively.
To compare hCD63+ expression in MSCs cultured in various media including CCM, CDPF, and CDPF with lysosome inhibitor, RT-quantitative real-time PCR (RT-qPCR) assays were performed.

With `CCN(CC)CCCC(C)Nc1ccnc2cc(Cl)ccc12` (centres unmarked) [chloroquine] the “expression of miR-22 (in words)” value (miR-222; [10]) was “did not induce an increase”, the “expression of miR-22 (in words)” value (miR-222; serum-free conditions) was “increased” and the “gene expression of FASN (in words)” value [1] was “robust upregulation”. The “expression level of Gal-3 (in words)” value [2] was “increased”, the “CD09 expression (in words)” value (CD09) was “elevated” and the “expression of FASN, fold vs CCM” value ([3]; CCM with lysosome inhibitor vs CCM, RT-qPCR) was “about 25 times”. For the same compound, the “expression of FASN, fold vs CDPF without lysosome inhibitor” value [3, 11] was “about 5 times”, the “gene expression of FASN (in words)” value ([3]; treatment with lysosome inhibitor, qPCR RQ) was “drastically induced” and the “gene expression of CD63, fold vs corresponding medium without CQ” value (CD63 [4]; CDPF+CQ vs CDPF) was “more than 2.5 times”. The “gene expression of CD63 (in words)” value (CD63 [4]; complete media) was “no notable changes; also recorded: not seen”, the “gene expression of CD63 (in words)” value (CD63 [4]; serum-free media (αMEM, CDPF), p≤0.001) was “significant upregulation; also recorded: large increase” and the “gene expression of CD63, fold vs corresponding medium without CQ” value (CD63 [4]; αMEM+CQ vs αMEM) was “more than 2.5 times”. For the same compound, the “CD63 levels (ELISA) vs corresponding medium without CQ” value (CD63 [5]; CDPF+CQ) was “higher”, the “CD63 levels (ELISA) vs corresponding medium without CQ” value (CD63 [5]; complete medium+CQ) was “higher” and the “increase in EVs (CD63+) quantity resulting from CQ treatment, serum-free vs complete media” value (CD63 [5]; serum-free media (αMEM and CDPF) compared to complete media) was “larger”. For the same compound, the “CD63 levels (ELISA) vs corresponding medium without CQ” value (CD63 [5]; αMEM+CQ) was “higher”, the “CD81 gene expression (in words)” value (CD81) was “did not increase significantly; also recorded: remained similar” and the “secretion of EVs (CD63+ particles) from stem cells to cultured medium (in words)” value (CD63 [6]; CDPF with lysosome inhibitor vs CCM and CDPF) was “stimulated”. For the same compound, the “EV productions (CD63 ELISA), fold vs CCM or CDPF without lysosome inhibitor” value (CD63 [6]; CDPF with lysosome inhibitor vs CCM or CDPF) was “about 2.3 times”, the “expression of miR-21 (in words)” value (miR-21; [10]) was “did not induce an increase” and the “expression of miR-21 (in words)” value (miR-21; serum-free conditions) was “increased”. For the same compound, the cellular morphology [7] was “notable thinning of spindle-shaped cells and the emergence of numerous lipid body-like structures”, the “intracellular acidification of human MSCs” value (human MSCs) was “suppresses” and the “expression level of IDO (in words)” value (IDO) was “increased”. For the same compound, the “gene expression of SREBF-1 (in words)” value [8] was “robust upregulation”, the “TSG-6 content levels (in words)” value [9] was “did not stimulate an increase” and the “expression of hCD63+ gene, fold vs MSCs cultured in CCM” value (human CD63 (hCD63) gene; CDPF with lysosome inhibitor vs CCM, RT-qPCR) was “about 10 times”. The “expression of hCD63+ gene, fold vs MSCs cultured in CDPF without lysosome inhibitor” value (human CD63 (hCD63) gene; [11]) was “about 5 times” and the “CD63 gene expression in MSCs (in words)” value (human CD63 (hCD63) gene; CDPF with lysosome inhibitor, qPCR) was “dramatic increase; also recorded: increased”.
